Experimental data reported in US20170143006A1, “Composition and Use Thereof” (DUPONT NUTRITION BIOSCIENCES APS, priority 2014, published 2017).
Counter-ions that a name gives are not always drawn. Marks after values point to notes of the source that are not given here.

Key:
[1] = pure form, white crystalline compound; cited from earlier work
ruminal fluid [2] = experiment: In vitro fermentation in buffered goat ruminal fluid, 24 h: determination of volatile fatty acids (VFA); format: cell-based, Murciano-Granadina goats; conditions: after 24 h of incubation
Description: Determination of VFA can be based on the method previously described by Jouany, J. P., Volatile fatty acid and alcohol determination in digestive contents, silage juices, bacterial cultures and anaerobic fermentor contents; Sciences des Aliments, 2: 131-144, 1982.
For instance, samples are filtered through 0.45 μm cellulose syringe filters. One hundred microliters of an internal standard solution (0.4 g of 4-metil-valeric acid diluted in 100 ml of deionised water) and 0.1 ml of a preservative (a mix of 5% H3PO4 and 1% CIHg in deionised water) are added to 0.8 ml of filtrate. One μL from each sample is injected in a gas chromatograph (Fisons 8000 series, Milan, Italy) equipped with a split/splitless injector and FID detector. The separation of SOFA (short chain fatty acids) is made in a DB-FFAP capillary column (30 m×0.25 mm×0.25 μm of film thickness) J&W Scientific (USA). The carrier gas is N2 at a constant pressure of 120 KPa. Both detector and injector temperatures are set at 245° C. The initial oven temperature is set at 115° C. held for 5 min and increased to 230 at 8.5° C./min and finally maintained at that temperature for 10 min. SOFA are identified by comparing their retention times with a standard (46975-U de Supelco®, PA, USA).
(§1) Twelve mature Murciano-Granadina goats of similar body weight (46.97±2.5 kg BW) during late lactation were randomly split into 4 groups. Each group was fed with the same total mixed ration for 10 days. Each group included 4 g/kg of one of four types of betaine additive: • 1—Non Coated Betaine BS1 (Betafin S1, natural betaine, DuPont) • 2—Coated Betaine B52 (see preparative example 3) • 3—Coated Betaine B60 (see preparative example 4) • 4—Uncoated Betaine HCl
(§2) After an adaptation period to the diets including betaine of 10 days, ruminal fluid was obtained by means of an oesophagus probe from all goats. Ruminal fluid from goats (3 per treatment) was obtained just before feeding, transported to the laboratory and immediately strained/filtered across/through four layers of cheesecloth and mixed into an Erlenmeyer flask.
(§3) The in vitro fermentation was carried out by the following incubation process; the squeezed rumen fluid (after filtration) was mixed with Goering and Van Soest (1970) buffer solution in a 1:4 (v/v) ratio at 39° C. under continuous flow of CO2.
(§4) Samples of 1 g of total ration (0.4 g concentrate and 0.6 g alfalfa hay) plus betaine (0.015 g of each type) were accurately weighed and mixed into 125 mL bottles (ANKOM RF equipment). 50 mL of the buffered rumen fluid was added to each bottle under CO2 flow.
(§5) Bottles were sealed and incubated at 39° C. for 24 h. Gas measurements were recorded every hour, while pH was measured at the start and right after 24 h; crude fiber, digestibility, CH4 and volatile fatty acid (VFA) concentrations were determined after 24 h of incubation.

ruminal fluid [3] = experiment: In vitro fermentation in buffered goat ruminal fluid, 24 h: gas production (methane content CH4); format: cell-based, Murciano-Granadina goats; conditions: for Gas production / mL CH4: after 24 hrs of incubation; for CH4/S / mL CH4/S / mL gas/S: per S (substrate in g DM), 24 hrs
Description: The gas content can be analysed in a Focus Gas Chromatograph (Thermo, Milan, Italy) equipped with a split/splitless injector and a flame ionization detector. The separation can be performed in a GS-Q capillary column (J&W Scientific, USA) (30 m×0.32 mm i.d.). The carrier gas may be Helium at a constant flow of 1 ml/min. The samples may be injected with a split ratio of 1/100. The initial oven temperature can be set at 50° C. held for 1 min and increased to 150 at 50° C./min and finally maintained at that temperature for 2 min. Both detector and injector temperatures can be set at 200° C. An external standard (41.21% CO2 and 58.79% CH4) may be employed for quantification of methane content in samples.
as §1, §2, §3, §4, §5

ruminal fluid [4] = experiment: In vitro fermentation in buffered goat ruminal fluid, 24 h: ruminal parameters (DM, pH, residue, digestibility, N-NH3); format: cell-based, Murciano-Granadina goats; conditions: 24 h incubation
Text: as §1, §2
The in vitro fermentation was carried out by the following incubation process; the squeezed rumen fluid (after filtration) was mixed with Goering and Van Soest (1970) buffer solution in a 1:4 (v/v) ratio at 39° C. under continuous flow of CO2. […]
Bottles were sealed and incubated at 39° C. for 24 h. Gas measurements were recorded every hour, while pH was measured at the start and right after 24 h; crude fiber, digestibility, CH4 and volatile fatty acid (VFA) concentrations were determined after 24 h of incubation. […]

Compound	solubility in water and lower alcohols [1]	Acetic acid (ruminal fluid [2])	Butyric acid (ruminal fluid [2])	Isobutyric acid (ruminal fluid [2])	Isovaleric acid (ruminal fluid [2])	N-Caproic acid (ruminal fluid [2])	N-Valeric acid (ruminal fluid [2])	Propionic acid (ruminal fluid [2])	Total VFA (ruminal fluid [2])	Gas production (ruminal fluid [3])	mL CH4 (ruminal fluid [3])	CH4/S (ruminal fluid [3])	mL CH4/S (ruminal fluid [3])	mL gas/S (ruminal fluid [3])	N—NH3, mg/L (ammonia nitrogen) (ruminal fluid [4])
C[N+](C)(C)CC(=O)[O-] [betaine, trimethylglycine]	readily soluble														
C[N+](C)(C)CC(=O)O [BHCl, Betaine HCl, reference compound]		63.90	14.63^a	0.61	0.95	0.19	1.64	18.07^b	47.13 mmol/L	210.67 mL	10.68^a mL	437.48 J	11.10^a mL	218.70 mL	51.13 mg/L
C[N+](C)(C)CC(=O)[O-] [BS1, betaine]		63.92	15.26^a	0.51	0.66	0.18	1.55	17.92^b	43.46 mmol/L	203.41 mL	12.17^a mL	498.54 J	12.65^a mL	210.33 mL	45.04 mg/L
